# Source: patent publication US5840684A, “Glycopeptide antibiotic derivatives” (Eli Lilly and Company, priority 1995, dated 1998)
# Experiments:
# Entercoccus faecium 276 = experiment: broth micro-dilution MIC; assay type: cell-based
# Method: (§1) The MIC's were determined using a standard broth micro-dilution assay.
# [1] = test system: Entercoccus faecium 180-1; experiment: broth micro-dilution MIC; assay type: cell-based
# Method: as §1
# [2] = test system: Staphylococcus aureus 489; experiment: broth micro-dilution MIC; assay type: cell-based
# Method: as §1
# [3] = test system: Staphylococcus aureus 447; experiment: broth micro-dilution MIC; assay type: cell-based
# Method: as §1
# [4] = test system: Staphylococcus aureus SA1199; experiment: broth micro-dilution MIC; assay type: cell-based
# Method: as §1
# [5] = test system: Streptococcus pyogenes C203; experiment: broth micro-dilution MIC; assay type: cell-based
# Method: as §1
# [6] = test system: Staphylococcus aureus 446; experiment: broth micro-dilution MIC; assay type: cell-based
# Method: as §1
# [7] = test system: Staphylococcus aureus X400; experiment: broth micro-dilution MIC; assay type: cell-based
# Method: as §1
# [8] = test system: Staphylococcus aureus X778; experiment: broth micro-dilution MIC; assay type: cell-based
# Method: as §1
# [9] = test system: Staphylococcus aureus SA1199A; experiment: broth micro-dilution MIC; assay type: cell-based
# Method: as §1
# [10] = test system: Staphylococcus aureus SA1199B; assay type: cell-based
# Method: as §1
# [11] = test system: Staphylococcus aureus S13E; assay type: cell-based
# Method: as §1
# [12] = test system: Streptococcus pneumoniae P1; experiment: broth micro-dilution MIC; assay type: cell-based
# Method: (§2) The formula I compounds have in vitro and in vivo activity against Gram-positive pathogenic bacteria. The MIC's were determined using a standard broth micro-dilution assay.
# [13] = test system: Staphylococcus haemolyticus 415; experiment: broth micro-dilution MIC; assay type: cell-based
# Method: as §2
# [14] = test system: Enterococcus gallinarum 245; experiment: broth micro-dilution MIC; assay type: cell-based; details: Enterococcus gallinarum 245
# Method: as §2
# [15] = test system: Staphylococcus epidermidis 270; experiment: broth micro-dilution MIC; assay type: cell-based
# Method: as §2
# [16] = test system: Staphylococcus haemolyticus 105; experiment: broth micro-dilution MIC; assay type: cell-based
# Method: as §2
# Entercoccus faecium 180 = experiment: broth micro-dilution MIC; assay type: cell-based; details: Entercoccus faecium 180
# Method: as §2
# Entercoccus faecium 2041 = experiment: broth micro-dilution MIC; assay type: cell-based; details: Entercoccus faecium 2041
# Method: as §2
# [17] = test system: vancomycin-resistant enterococci; experiment: broth micro-dilution, mean geometric MIC; assay type: cell-based, Enterococcus faecium and Enterococcus faecalis; details: enterococci, 24-hour incubation
# [18] = test system: vancomycin-susceptible enterococci; experiment: broth micro-dilution, mean geometric MIC; assay type: cell-based, Enterococcus faecium and Enterococcus faecalis; details: enterococci, 24-hour incubation
structure (smiles),measurement,setting,value
CNC(CC(C)C)C(=O)NC1C(=O)NC(CC(N)=O)C(=O)NC2C(=O)NC3C(=O)NC(C(=O)NC(C(=O)O)c4cc(O)cc(O)c4-c4cc3ccc4O)C(OC3CC(C)(N)C(O)C(C)O3)c3ccc(c(Cl)c3)Oc3cc2cc(c3OC2OC(CO)C(O)C(O)C2OC2CC(C)(NCc3cccc(OC(C)=O)c3)C(O)C(C)O2)Oc2ccc(cc2Cl)C1O (stereo not shown) [Compound 77],MIC,Entercoccus faecium 276,0.25 µg/mL
same,MIC,[1],0.125 µg/mL
same,MIC,[2],≤ 0.06 µg/mL
same,MIC,[3],1 µg/mL
same,MIC,[4],≤ 0.06 µg/mL
same,MIC,[5],≤ 0.06 µg/mL
same,MIC,[6],≤ 0.06 µg/mL
same,MIC,[7],≤ 0.06 µg/mL
same,MIC,[8],≤ 0.06 µg/mL
same,MIC,[9],≤ 0.06 µg/mL
same,MIC,[10],0.125 µg/mL
same,MIC,[11],0.125 µg/mL
same,MIC,[12],≤ 0.06 µg/mL
same,MIC,[13],8 µg/mL
same,MIC,[14],0.25 µg/mL
same,MIC,[15],0.5 µg/mL
same,MIC,[16],2 µg/mL
same,MIC,Entercoccus faecium 180,8 µg/mL
same,MIC,Entercoccus faecium 2041,0.25 µg/mL
CNC(CC(C)C)C(=O)NC1C(=O)NC(CC(N)=O)C(=O)NC2C(=O)NC3C(=O)NC(C(=O)NC(C(=O)O)c4cc(O)cc(O)c4-c4cc3ccc4O)C(OC3CC(C)(N)C(O)C(C)O3)c3ccc(c(Cl)c3)Oc3cc2cc(c3OC2OC(CO)C(O)C(O)C2OC2CC(C)(NCc3ccc(Oc4ccc(OC)cc4)cc3)C(O)C(C)O2)Oc2ccc(cc2Cl)C1O (stereo not shown) [Compound 98],"mean geometric MIC, Vancomycin Resistant Strains",[17],2.4 µg/mL
same,MIC,Entercoccus faecium 276,0.125 µg/mL
same,MIC,[1],≤ 0.06 µg/mL
same,MIC,[2],≤ 0.06 µg/mL
same,MIC,[4],0.5 µg/mL
same,MIC,[5],≤ 0.06 µg/mL
same,MIC,[6],0.5 µg/mL
same,MIC,[7],≤ 0.06 µg/mL
same,MIC,[8],≤ 0.06 µg/mL
same,MIC,[9],≤ 0.06 µg/mL
same,"mean geometric MIC, Vancomycin Sensitive Strains",[18],0.095 µg/mL
same,MIC,[10],1 µg/mL
same,MIC,[11],0.5 µg/mL
same,MIC,[12],≤ 0.06 µg/mL
same,MIC,[13],1 µg/mL
same,MIC,[14],1 µg/mL
same,MIC,[15],≤ 0.06 µg/mL
same,MIC,[16],1 µg/mL
same,MIC,Entercoccus faecium 2041,≤ 0.06 µg/mL
CNC(CC(C)C)C(=O)NC1C(=O)NC(CC(N)=O)C(=O)NC2C(=O)NC3C(=O)NC(C(=O)NC(C(=O)O)c4cc(O)cc(O)c4-c4cc3ccc4O)C(OC3CC(C)(N)C(O)C(C)O3)c3ccc(c(Cl)c3)Oc3cc2cc(c3OC2OC(CO)C(O)C(O)C2OC2CC(C)(NCc3ccc(O)cc3)C(O)C(C)O2)Oc2ccc(cc2Cl)C1O (stereo not shown) [Compound 136],"mean geometric MIC, Vancomycin Resistant Strains",[17],23 µg/mL
same,MIC,Entercoccus faecium 276,≤ 0.06 µg/mL
same,MIC,[1],≤ 0.06 µg/mL
same,MIC,[2],≤ 0.06 µg/mL
same,MIC,[3],2 µg/mL
same,MIC,[4],≤ 0.06 µg/mL
same,MIC,[5],≤ 0.06 µg/mL
same,MIC,[6],≤ 0.06 µg/mL
same,MIC,[7],≤ 0.06 µg/mL
same,MIC,[8],≤ 0.06 µg/mL
same,MIC,[9],≤ 0.06 µg/mL
same,"mean geometric MIC, Vancomycin Sensitive Strains",[18],0.76 µg/mL
same,MIC,[10],≤ 0.06 µg/mL
same,MIC,[11],≤ 0.06 µg/mL
same,MIC,[12],≤ 0.06 µg/mL
same,MIC,[13],4 µg/mL
same,MIC,[14],4 µg/mL
same,MIC,[15],1 µg/mL
same,MIC,[16],2 µg/mL
same,MIC,Entercoccus faecium 180,2 µg/mL
same,MIC,Entercoccus faecium 2041,≤ 0.06 µg/mL
CNC(CC(C)C)C(=O)NC1C(=O)NC(CC(N)=O)C(=O)NC2C(=O)NC3C(=O)NC(C(=O)NC(C(=O)O)c4cc(O)cc(O)c4-c4cc3ccc4O)C(OC3CC(C)(N)C(O)C(C)O3)c3ccc(c(Cl)c3)Oc3cc2cc(c3OC2OC(CO)C(O)C(O)C2OC2CC(C)(NCc3ccc(-c4ccccn4)cc3)C(O)C(C)O2)Oc2ccc(cc2Cl)C1O (stereo not shown) [Compound 137],"mean geometric MIC, Vancomycin Resistant Strains",[17],6.7 µg/mL
same,MIC,Entercoccus faecium 276,≤ 0.06 µg/mL
same,MIC,[1],≤ 0.06 µg/mL
same,MIC,[2],≤ 0.06 µg/mL
same,MIC,[3],4 µg/mL
same,MIC,[4],≤ 0.06 µg/mL
same,MIC,[5],≤ 0.06 µg/mL
same,MIC,[7],≤ 0.06 µg/mL
same,MIC,[8],≤ 0.06 µg/mL
same,MIC,[9],≤ 0.06 µg/mL
same,"mean geometric MIC, Vancomycin Sensitive Strains",[18],0.38 µg/mL
same,MIC,[10],≤ 0.06 µg/mL
same,MIC,[11],≤ 0.06 µg/mL
same,MIC,[12],≤ 0.06 µg/mL
same,MIC,[13],8 µg/mL
same,MIC,[14],8 µg/mL
same,MIC,[15],0.5 µg/mL
same,MIC,[16],2 µg/mL
same,MIC,Entercoccus faecium 180,0.125 µg/mL
same,MIC,Entercoccus faecium 2041,≤ 0.06 µg/mL
CNC(CC(C)C)C(=O)NC1C(=O)NC(CC(N)=O)C(=O)NC2C(=O)NC3C(=O)NC(C(=O)NC(C(=O)O)c4cc(O)cc(O)c4-c4cc3ccc4O)C(OC3CC(C)(N)C(O)C(C)O3)c3ccc(cc3)Oc3cc2cc(c3OC2OC(CO)C(O)C(O)C2OC2CC(C)(NCc3ccc(-c4ccccc4)cc3)C(O)C(C)O2)Oc2ccc(cc2)C1O (stereo not shown) [Compound 183],"mean geometric MIC, Vancomycin Resistant Strains",[17],23 µg/mL
same,MIC,[1],≤ 0.06 µg/mL
same,MIC,[2],≤ 0.06 µg/mL
same,MIC,[3],≤ 0.06 µg/mL
same,MIC,[4],≤ 0.06 µg/mL
same,MIC,[5],≤ 0.06 µg/mL
same,MIC,[6],≤ 0.06 µg/mL
same,MIC,[7],≤ 0.06 µg/mL
same,MIC,[8],≤ 0.06 µg/mL
same,MIC,[9],≤ 0.06 µg/mL
same,"mean geometric MIC, Vancomycin Sensitive Strains",[18],0.130 µg/mL
same,MIC,[10],≤ 0.06 µg/mL
same,MIC,[11],≤ 0.06 µg/mL
same,MIC,[12],≤ 0.06 µg/mL
same,MIC,[13],≤ 0.06 µg/mL
same,MIC,[14],0.5 µg/mL
same,MIC,[15],≤ 0.06 µg/mL
same,MIC,[16],≤ 0.06 µg/mL
same,MIC,Entercoccus faecium 180,2 µg/mL
same,MIC,Entercoccus faecium 2041,≤ 0.06 µg/mL
C=CCCCCNC1(C)CC(OC2C(Oc3c4cc5cc3Oc3ccc(cc3Cl)C(OC3CC(C)(N)C(O)C(C)O3)C3NC(=O)C(NC(=O)C5NC(=O)C(CC(N)=O)NC(=O)C(NC(=O)C(CC(C)C)NC)C(O)c5ccc(c(Cl)c5)O4)c4ccc(O)c(c4)-c4c(O)cc(O)cc4C(C(=O)O)NC3=O)OC(CO)C(O)C2O)OC(C)C1O (stereo not shown) [Compound 217],"mean geometric MIC, Vancomycin Resistant Strains",[17],13 µg/mL
same,MIC,Entercoccus faecium 276,≤ 0.06 µg/mL
same,MIC,[1],≤ 0.06 µg/mL
same,MIC,[2],≤ 0.06 µg/mL
same,MIC,[3],1 µg/mL
same,MIC,[4],≤ 0.06 µg/mL
same,MIC,[5],≤ 0.06 µg/mL
same,MIC,[7],≤ 0.06 µg/mL
same,MIC,[8],≤ 0.06 µg/mL
same,MIC,[9],≤ 0.06 µg/mL
same,"mean geometric MIC, Vancomycin Sensitive Strains",[18],0.57 µg/mL
same,MIC,[10],0.125 µg/mL
same,MIC,[11],≤ 0.06 µg/mL
same,MIC,[12],≤ 0.06 µg/mL
same,MIC,[13],8 µg/mL
same,MIC,[14],8 µg/mL
same,MIC,[15],0.5 µg/mL
same,MIC,[16],2 µg/mL
same,MIC,Entercoccus faecium 180,2 µg/mL
same,MIC,Entercoccus faecium 2041,≤ 0.06 µg/mL
CNC(CC(C)C)C(=O)NC1C(=O)NC(CC(N)=O)C(=O)NC2C(=O)NC3C(=O)NC(C(=O)NC(C(=O)O)c4cc(O)cc(O)c4-c4cc3ccc4O)C(OC3CC(C)(N)C(O)C(C)O3)c3ccc(c(Cl)c3)Oc3cc2cc(c3OC2OC(CO)C(O)C(O)C2OC2CC(C)(NCc3sccc3-c3cccs3)C(O)C(C)O2)Oc2ccc(cc2Cl)C1O (stereo not shown) [Compound 238],"mean geometric MIC, Vancomycin Resistant Strains",[17],1.4 µg/mL
same,MIC,Entercoccus faecium 276,≤ 0.06 µg/mL
same,MIC,[1],≤ 0.06 µg/mL
same,MIC,[2],0.5 µg/mL
same,MIC,[3],0.5 µg/mL
same,MIC,[4],0.5 µg/mL
same,MIC,[5],≤ 0.06 µg/mL
same,MIC,[6],1 µg/mL
same,MIC,[7],1 µg/mL
same,MIC,[8],0.5 µg/mL
same,MIC,[9],≤ 0.06 µg/mL
same,"mean geometric MIC, Vancomycin Sensitive Strains",[18],0.14 µg/mL
same,MIC,[10],0.5 µg/mL
same,MIC,[11],0.125 µg/mL
same,MIC,[12],≤ 0.06 µg/mL
same,MIC,[13],2 µg/mL
same,MIC,[14],≤ 0.06 µg/mL
same,MIC,[15],0.5 µg/mL
same,MIC,[16],0.5 µg/mL
same,MIC,Entercoccus faecium 180,0.125 µg/mL
same,MIC,Entercoccus faecium 2041,≤ 0.06 µg/mL
CNC(CC(C)C)C(=O)NC1C(=O)NC(CC(N)=O)C(=O)NC2C(=O)NC3C(=O)NC(C(=O)NC(C(=O)O)c4cc(O)cc(O)c4-c4cc3ccc4O)C(OC3CC(C)(N)C(O)C(C)O3)c3ccc(c(Cl)c3)Oc3cc2cc(c3OC2OC(CO)C(O)C(O)C2OC2CC(C)(NCC3CCC(Cc4ccccc4)CC3)C(O)C(C)O2)Oc2ccc(cc2Cl)C1O (stereo not shown) [Compound 241],"mean geometric MIC, Vancomycin Resistant Strains",[17],1.4 µg/mL
same,MIC,Entercoccus faecium 276,≤ 0.06 µg/mL
same,MIC,[1],≤ 0.06 µg/mL
same,MIC,[2],0.5 µg/mL
same,MIC,[3],1 µg/mL
same,MIC,[4],1 µg/mL
same,MIC,[5],≤ 0.06 µg/mL
same,MIC,[6],0.5 µg/mL
same,MIC,[7],0.5 µg/mL
same,MIC,[8],1 µg/mL
same,MIC,[9],≤ 0.06 µg/mL
same,"mean geometric MIC, Vancomycin Sensitive Strains",[18],0.048 µg/mL
same,MIC,[10],1 µg/mL
same,MIC,[12],≤ 0.06 µg/mL
same,MIC,[13],1 µg/mL
same,MIC,[14],≤ 0.06 µg/mL
same,MIC,[15],0.5 µg/mL
same,MIC,[16],1 µg/mL
same,MIC,Entercoccus faecium 180,≤ 0.06 µg/mL
same,MIC,Entercoccus faecium 2041,≤ 0.06 µg/mL
